Assay results as given in patent publication US10045983B2, “Heteroaryl pyridone and aza-pyrodine compounds” (Genentech, Inc., priority 2011, dated 2018).
Read-outs that look alike come from different tables or passages of the source.

Assay: CD69 Whole Blood Assay (CD69 Hu Blood FACS)
Assay type: cell-based, human
Conditions: Lymphocyte, human whole blood, anti-IgM activated B lymphocytes, FACS, IC70
Outline: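 Human whole blood stimulated by crosslinking surface IgM with goat F(ab′)2 anti-human IgM; inhibition of CD69 expression on B lymphocytes measured by flow cytometry.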

[1] = Table 2 (unit inferred), read-out: CD69 Hu Blood FACS (IC70)
[2] = Table 1, read-out: CD69 Hu Blood FACS IC70

CC(=O)N1CCn2nc(Nc3cc(-c4ccnc(N5CCn6c(cc7c6CCCC7)C5=O)c4CO)cn(C)c3=O)cc2C1 [Example 209, 2-[4-[5-[(5-acetyl-6,7-dihydro-4H-pyrazolo[1,5-a]pyrazin-2-yl)amino]-1-methyl-6-oxo-3-pyridyl]-3-(hydroxymethyl)-2-pyridyl]-3,4,6,7,8,9-hexahydropyrazino[1,2-a]indol-1-one]
IC70 [1]: 116 nM

Cn1cc(-c2ccnc(-n3ncc4c5c(sc4c3=O)CCCC5)c2CO)cc(Nc2ccncn2)c1=O [Example 182, 3-[3′-Hydroxymethyl-1-methyl-6-oxo-5-(pyrimidin-4-ylamino)-1,6-dihydro-[3,4′]bipyridinyl-2′-yl]-6,7,8,9-tetrahydro-3H-benzo[4,5]thieno[2,3-d]pyridazin-4-one]
IC70 [2]: 813 nM

C[C@@H]1CN(c2ccc(Nc3cc(-c4ccnc(N5CCc6c(cc7n6CCCC7)C5=O)c4CO)cn(C)c3=O)nc2)[C@@H](C)CN1C1COC1 [Example 155, 2-{5-[5-((2S,5R)-2,5-Dimethyl-4-oxetan-3-yl-piperazin-1-yl)-pyridin-2-ylamino]-3′-hydroxymethyl-1-methyl-6-oxo-1,6-dihydro-[3,4′]bipyridinyl-2′-yl}-2,3,5,6,7,8-hexahydro-4H-2,4b-diaza-fluoren-1-one]
IC70 [2]: 45.4 nM

Cc1cc(Nc2cc(-c3ccnc(-n4ncc5c6c(sc5c4=O)CC(C)(C)C6)c3CO)cn(C)c2=O)no1 [Example 288, 3-[3-(hydroxymethyl)-4-[1-methyl-5-[(5-methylisoxazol-3-yl)amino]-6-oxo-3-pyridyl]-2-pyridyl]-7,7-dimethyl-6,8-dihydrocyclopenta[3,4]thieno[1,3-d]pyridazin-4-one]
IC70 [1]: 229 nM

Cn1cc(-c2nccc(N3CCn4c(cc5c4CCCC5)C3=O)c2CO)cc(Nc2ccc(N3CCN(C4COC4)CC3)cn2)c1=O [Example 104, 2-(3-(Hydroxymethyl)-2-(1-methyl-5-(5-(4-(oxetan-3-yl)piperazin-1-yl)pyridin-2-ylamino)-6-oxo-1,6-dihydropyridin-3-yl)pyridin-4-yl)-3,4,6,7,8,9-hexahydropyrazino[1,2-a]indol-1(2H)-one]
IC70 [2]: 793 nM

Cn1cc(-c2ccnc(N3CCn4c(cc5c4CC(C)(C)C5)C3=O)c2CO)cc(Nc2ccc(C3CC3)cn2)c1=O [Example 278, 3-[4-[5-[(5-cyclopropyl-2-pyridyl)amino]-1-methyl-6-oxo-3-pyridyl]-3-(hydroxymethyl)-2-pyridyl]-7,7-dimethyl-1,2,6,8-tetrahydrocyclopenta[3,4]pyrrolo[3,5-b]pyrazin-4-one]
IC70 [1]: 3200 nM

CN1CC(Oc2ccc(Nc3cc(-c4ccnc(N5CCn6c(cc7c6CCCC7)C5=O)c4CO)cn(C)c3=O)nc2)C1 [Example 206, 2-[3-(hydroxymethyl)-4-[1-methyl-5-[[5-(1-methylazetidin-3-yl)oxy-2-pyridyl]amino]-6-oxo-3-pyridyl]-2-pyridyl]-3,4,6,7,8,9-hexahydropyrazino[1,2-a]indol-1-one]
IC70 [1]: 150 nM

C[C@H]1COCCN1C(=O)c1ccc(Nc2cc(-c3ccnc(N4CCn5c(cc6c5CC(C)(C)C6)C4=O)c3CO)cn(C)c2=O)nc1 [Example 257, 3-[3-(hydroxymethyl)-4-[1-methyl-5-[[5-[(3 S)-3-methylmorpholine-4-carbonyl]-2-pyridyl]amino]-6-oxo-3-pyridyl]-2-pyridyl]-7,7-dimethyl-1,2,6,8-tetrahydrocyclopenta[3,4]pyrrolo[3,5-b]pyrazin-4-one]
IC70 [1]: 21.6 nM

CC(=O)N1CCc2nc(Nc3cc(-c4ccnc(N5CCn6c7c(c(F)c6C5=O)CCCC7)c4CO)cn(C)c3=O)sc2C1 [Example 234, 2-[4-[5-[(5-acetyl-6,7-dihydro-4H-thiazolo[5,4-c]pyridin-2-yl)amino]-1-methyl-6-oxo-3-pyridyl]-3-(hydroxymethyl)-2-pyridyl]-10-fluoro-3,4,6,7,8,9-hexahydropyrazino[1,2-a]indol-1-one]
IC70 [1]: 183 nM

C[C@H]1COCCN1C(=O)c1ccc(Nc2cc(-c3ccnc(N4CCn5c(cc6c5CC(C)(C)C6)C4=O)c3CO)nn(C)c2=O)nc1 [Example 256, 3-[3-(hydroxymethyl)-4-[1-methyl-5-[[5-[(3 S)-3-methylmorpholine-4-carbonyl]-2-pyridyl]amino]-6-oxo-pyridazin-3-yl]-2-pyridyl]-7,7-dimethyl-1,2,6,8-tetrahydrocyclopenta[3,4]pyrrolo[3,5-b]pyrazin-4-one]
IC70 [1]: 80 nM

C[C@@H]1COC[C@H](C)N1C(=O)c1ccc(Nc2cc(-c3ccnc(N4CCn5c(cc6c5CCCC6)C4=O)c3CO)cn(C)c2=O)nc1 [Example 322, 2-[4-[5-[[5-[(3S,5R)-3,5-dimethylmorpholine-4-carbonyl]-2-pyridyl]amino]-1-methyl-6-oxo-3-pyridyl]-3-(hydroxymethyl)-2-pyridyl]-3,4,6,7,8,9-hexahydropyrazino[1,2-a]indol-1-one]
IC70 [1]: 79.6 nM

Cn1cc(-c2cncc(N3CCn4c(cc5c4CCCC5)C3=O)c2CO)cc(Nc2ccc(N3CCN(C4COC4)CC3)cn2)c1=O [Example 101, 2-(4-(hydroxymethyl)-5-(1-methyl-5-(5-(4-(oxetan-3-yl)piperazin-1-yl)pyridin-2-ylamino)-6-oxo-1,6-dihydropyridin-3-yl)pyridin-3-yl)-3,4,6,7,8,9-hexahydropyrazino[1,2-a]indol-1(2H)-one]
IC70 [2]: 132 nM

Cn1cc(-c2ccnc(N3CCn4c(cc5c4CC(C)(C)C5)C3=O)c2CO)cc(Nc2cc3n(n2)CCN(C2COC2)C3)c1=O [Example 163, 2-[3′-Hydroxymethyl-1-methyl-5-(5-oxetan-3-yl-4,5,6,7-tetrahydro-pyrazolo[1,5-a]pyrazin-2-ylamino)-6-oxo-1,6-dihydro-[3,4′]bipyridinyl-2′-yl]-7,7-dimethyl-3,4,7,8-tetrahydro-2H,6H-cyclopenta[4,5]pyrrolo[1,2-a]pyrazin-1-one]
IC70 [2]: 22.8 nM

COCCCN1CCn2nc(Nc3cc(-c4ccnc(N5CCn6c(cc7c6CC(C)(C)C7)C5=O)c4CO)cn(C)c3=O)cc2C1 [Example 309, 3-[3-(hydroxymethyl)-4-[5-[[5-(3-methoxypropyl)-6,7-dihydro-4H-pyrazolo[1,5-a]pyrazin-2-yl]amino]-1-methyl-6-oxo-3-pyridyl]-2-pyridyl]-7,7-dimethyl-1,2,6,8-tetrahydrocyclopenta[3,4]pyrrolo[3,5-b]pyrazin-4-one]
IC70 [1]: 39.8 nM

Cn1cc(-c2ccnc(N3CCc4c(sc5c4CC(C)(C)C5)C3=O)c2CO)cc(Nc2ccc(N3CCN(C4COC4)CC3)cn2)c1=O [Example 109, 2-(3-(Hydroxymethyl)-4-(1-methyl-5-(5-(4-(oxetan-3-yl)piperazin-1-yl)pyridin-2-ylamino)-6-oxo-1,6-dihydropyridin-3-yl)pyridin-2-yl)-4,4-dimethyl-7-thia-10-azatricyclo[6.4.0.0^2,6]dodeca-1(8),2(6)-dien-9-one]
IC70 [2]: 50.1 nM

CN1CCn2nc(Nc3cc(-c4ccnc(N5CCn6c(cc7c6[C@H]6CC[C@@H]7C6)C5=O)c4CO)cn(C)c3=O)cc2C1 (stereo in doubt) [Example 167, 2-(3-(hydroxymethyl)-4-(1-methyl-5-(5-methyl-4,5,6,7-tetrahydropyrazolo[1,5-a]pyrazin-2-ylamino)-6-oxo-1,6-dihydropyridin-3-yl)pyridin-2-yl)-3,4,6,7,8,9-hexahydro-6,9-methanopyrazino[1,2-a]indol-1(2H)-one]
IC70 [2]: 119 nM

Cn1cc(-c2ccnc(N3CCn4c(cc5c4CC(C)(C)C5)C3=O)c2CO)cc(Nc2cnccn2)c1=O [Example 188, 2-[3′-Hydroxymethyl-1-methyl-6-oxo-5-(pyrazin-2-ylamino)-1,6-dihydro-[3,4′]bipyridinyl-2′-yl]-7,7-dimethyl-3,4,7,8-tetrahydro-2H,6H-cyclopenta[4,5]pyrrolo[1,2-a]pyrazin-1-one]
IC70 [2]: 601 nM

Cn1cc(-c2ccnc(N3CCn4c(cc5c4CCCC5)C3=O)c2CO)nc(Nc2ccc(N3CCN(C4COC4)CC3)nc2)c1=O [Example 197, 2-[3-(hydroxymethyl)-4-[4-methyl-6-[[6-[4-(oxetan-3-yl)piperazin-1-yl]-3-pyridyl]amino]-5-oxo-pyrazin-2-yl]-2-pyridyl]-3,4,6,7,8,9-hexahydropyrazino[1,2-a]indol-1-one]
IC70 [1]: 2300 nM

C[C@H]1CN(C2COC2)CCN1c1ccc(Nc2cc(-c3ccnc(N4CCn5c(cc6c5CCCC6)C4=O)c3C3(O)COC3)cn(C)c2=O)nc1 [Example 148, (S)-2-(3-(3-Hydroxyoxetan-3-yl)-4-(1-methyl-5-(5-(2-methyl-4-(oxetan-3-yl)piperazin-1-yl)pyridin-2-ylamino)-6-oxo-1,6-dihydropyridin-3-yl)pyridin-2-yl)-3,4,6,7,8,9-hexahydropyrazino[1,2-a]indol-1(2H)-one]
IC70 [2]: 5000 nM

Cc1cc(Nc2cc(-c3ccnc(N4CCn5c(cc6c5CCCC6)C4=O)c3CO)cn(C)c2=O)n[nH]1 [Example 115, 2-(3-(Hydroxymethyl)-4-(1-methyl-5-(5-methyl-1H-pyrazol-3-ylamino)-6-oxo-1,6-dihydropyridin-3-yl)pyridin-2-yl)-3,4,6,7,8,9-hexahydropyrazino[1,2-a]indol-1(2H)-one]
IC70 [2]: 286 nM

CC1Cn2nc(Nc3cc(-c4ccnc(N5CCn6c(cc7c6CCCC7)C5=O)c4CO)cn(C)c3=O)cc2CN1C (stereo not shown) [Example 250, 2-[4-[5-[(5,6-dimethyl-6,7-dihydro-4H-pyrazolo[1,5-a]pyrazin-2-yl)amino]-1-methyl-6-oxo-3-pyridyl]-3-(hydroxymethyl)-2-pyridyl]-3,4,6,7,8,9-hexahydropyrazino[1,2-a]indol-1-one]
IC70 [1]: 171 nM

Cc1cc(Nc2cc(-c3ccnc(N4CCn5c(cc6c5CC(C)(C)C6)C4=O)c3CO)cn(C)c2=O)no1 [Example 283, 3-[3-(hydroxymethyl)-4-[1-methyl-5-[(5-methylisoxazol-3-yl)amino]-6-oxo-3-pyridyl]-2-pyridyl]-7,7-dimethyl-1,2,6,8-tetrahydrocyclopenta[3,4]pyrrolo[3,5-b]pyrazin-4-one]
IC70 [1]: 143 nM
